Data as given in PubChem BioAssay (NCI).
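Five compound concentrations were applied to cells in 96-well plates for 48 hours; endpoints were derived by simple linear interpolation of the resulting dose-response curve. TGI is the concentration that stops growth completely.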

Legend:
Assay in all cases: growth of human tumour cells (NCI), 48 h
OVCAR-4 ovarian = test system: OVCAR-4 ovarian
SW-620 colon = test system: SW-620 colon
EKVX NSCLC = test system: EKVX NSCLC
A549 NSCLC = test system: A549 NSCLC
NCI-H460 lung = test system: NCI-H460 lung
M14 melanoma = test system: M14 melanoma
RXF-631 renal = test system: RXF-631 renal
HCC-2998 colon = test system: HCC-2998 colon
HOP-92 NSCLC = test system: HOP-92 NSCLC
ACHN renal = test system: ACHN renal
COLO 205 colon = test system: COLO 205 colon
LOX IMVI melanoma = test system: LOX IMVI melanoma
SF-295 CNS = test system: SF-295 CNS
DMS 273 small cell lung = test system: DMS 273 small cell lung
SK-MEL-28 melanoma = test system: SK-MEL-28 melanoma
HOP-62 NSCLC = test system: HOP-62 NSCLC
KM20L2 colon = test system: KM20L2 colon
HT29 colon = test system: HT29 colon
HL-60(TB) leukemia = test system: HL-60(TB) leukemia
786-0 renal = test system: 786-0 renal
NCI-H23 lung = test system: NCI-H23 lung
LXFL 529 NSCLC = test system: LXFL 529 NSCLC
M19-MEL melanoma = test system: M19-MEL melanoma
RXF 393 renal = test system: RXF 393 renal
HOP-18 NSCLC = test system: HOP-18 NSCLC
HCT-15 colon = test system: HCT-15 colon
SNB-75 CNS = test system: SNB-75 CNS
SN12C renal = test system: SN12C renal
XF 498 CNS = test system: XF 498 CNS
IGROV1 ovarian = test system: IGROV1 ovarian
UO-31 renal = test system: UO-31 renal
U251 CNS = test system: U251 CNS
UACC-62 melanoma = test system: UACC-62 melanoma
TK-10 renal = test system: TK-10 renal
SF-268 CNS = test system: SF-268 CNS
SK-OV-3 ovarian = test system: SK-OV-3 ovarian
OVCAR-8 ovarian = test system: OVCAR-8 ovarian
CAKI-1 renal = test system: CAKI-1 renal
OVCAR-3 ovarian = test system: OVCAR-3 ovarian
DMS 114 small cell lung = test system: DMS 114 small cell lung
DLD-1 colon = test system: DLD-1 colon
MALME-3M melanoma = test system: MALME-3M melanoma
UACC-257 melanoma = test system: UACC-257 melanoma
SNB-78 CNS = test system: SNB-78 CNS
KM12 colon = test system: KM12 colon
SR leukemia = test system: SR leukemia
SK-MEL-5 melanoma = test system: SK-MEL-5 melanoma
OVCAR-5 ovarian = test system: OVCAR-5 ovarian
K-562 leukemia = test system: K-562 leukemia
RPMI-8226 leukemia = test system: RPMI-8226 leukemia
MOLT-4 leukemia = test system: MOLT-4 leukemia
HCT-116 colon = test system: HCT-116 colon
SK-MEL-2 melanoma = test system: SK-MEL-2 melanoma
NCI-H226 lung = test system: NCI-H226 lung
SF-539 CNS = test system: SF-539 CNS
SNB-19 CNS = test system: SNB-19 CNS
CCRF-CEM leukemia = test system: CCRF-CEM leukemia
NCI-H522 lung = test system: NCI-H522 lung
A498 renal = test system: A498 renal

`O=C1CCC(=O)C12CCc1ccccc12` was tested, and the TGI (OVCAR-4 ovarian) was > 100 µM, the TGI (SW-620 colon) was > 100 µM and the TGI (EKVX NSCLC) was > 100 µM. The TGI (A549 NSCLC) was > 100 µM, the TGI (NCI-H460 lung) was > 100 µM and the TGI (M14 melanoma) was > 100 µM. For the same molecule, the TGI (RXF-631 renal) was > 100 µM, the TGI (HCC-2998 colon) was > 100 µM and the TGI (HOP-92 NSCLC) was > 100 µM. For the same molecule, the TGI (ACHN renal) was > 100 µM, the TGI (COLO 205 colon) was > 100 µM and the TGI (LOX IMVI melanoma) was > 100 µM. For the same molecule, the TGI (SF-295 CNS) was > 100 µM, the TGI (DMS 273 small cell lung) was > 100 µM and the TGI (SK-MEL-28 melanoma) was > 100 µM. The TGI (HOP-62 NSCLC) was > 100 µM, the TGI (KM20L2 colon) was > 100 µM and the TGI (HT29 colon) was > 100 µM. The TGI (HL-60(TB) leukemia) was > 100 µM, the TGI (786-0 renal) was > 100 µM and the TGI (NCI-H23 lung) was > 100 µM. The TGI (LXFL 529 NSCLC) was > 100 µM, the TGI (M19-MEL melanoma) was > 100 µM and the TGI (RXF 393 renal) was > 100 µM. The TGI (HOP-18 NSCLC) was > 100 µM, the TGI (HCT-15 colon) was > 100 µM and the TGI (SNB-75 CNS) was > 100 µM. For the same molecule, the TGI (SN12C renal) was > 100 µM, the TGI (XF 498 CNS) was > 100 µM and the TGI (IGROV1 ovarian) was > 100 µM. The TGI (UO-31 renal) was > 100 µM, the TGI (U251 CNS) was > 100 µM and the TGI (UACC-62 melanoma) was > 100 µM. The TGI (TK-10 renal) was > 100 µM, the TGI (SF-268 CNS) was > 100 µM and the TGI (SK-OV-3 ovarian) was > 100 µM. The TGI (OVCAR-8 ovarian) was > 100 µM, the TGI (CAKI-1 renal) was > 100 µM and the TGI (OVCAR-3 ovarian) was > 100 µM. For the same molecule, the TGI (DMS 114 small cell lung) was > 100 µM, the TGI (DLD-1 colon) was > 100 µM and the TGI (MALME-3M melanoma) was > 100 µM.
In the case of `CCn1cc(C(=O)O)c(=O)c2cc(F)c(N3CCNCC3)nc21`, the TGI (OVCAR-4 ovarian) is reported as > 100 µM, the TGI (SW-620 colon) is reported as > 100 µM and the TGI (EKVX NSCLC) is reported as > 100 µM. The TGI (A549 NSCLC) was > 100 µM, the TGI (UACC-257 melanoma) was > 100 µM and the TGI (NCI-H460 lung) was > 100 µM. For the same molecule, the TGI (M14 melanoma) was > 100 µM, the TGI (RXF-631 renal) was > 100 µM and the TGI (HCC-2998 colon) was > 100 µM. The TGI (SNB-78 CNS) was > 100 µM, the TGI (HOP-92 NSCLC) was > 100 µM and the TGI (ACHN renal) was > 100 µM. The TGI (KM12 colon) was > 100 µM, the TGI (COLO 205 colon) was > 100 µM and the TGI (LOX IMVI melanoma) was > 100 µM. The TGI (SF-295 CNS) was > 100 µM, the TGI (SR leukemia) was > 100 µM and the TGI (DMS 273 small cell lung) was > 100 µM. The TGI (SK-MEL-28 melanoma) was > 100 µM, the TGI (HOP-62 NSCLC) was > 100 µM and the TGI (SK-MEL-5 melanoma) was > 100 µM. For the same molecule, the TGI (HT29 colon) was > 100 µM, the TGI (HL-60(TB) leukemia) was > 100 µM and the TGI (OVCAR-5 ovarian) was > 100 µM. For the same molecule, the TGI (786-0 renal) was > 100 µM, the TGI (NCI-H23 lung) was > 100 µM and the TGI (LXFL 529 NSCLC) was > 100 µM. For the same molecule, the TGI (M19-MEL melanoma) was > 100 µM, the TGI (K-562 leukemia) was > 100 µM and the TGI (HOP-18 NSCLC) was > 100 µM. The TGI (HCT-15 colon) was > 100 µM, the TGI (RPMI-8226 leukemia) was > 100 µM and the TGI (SNB-75 CNS) was > 100 µM. The TGI (MOLT-4 leukemia) was > 100 µM, the TGI (SN12C renal) was > 100 µM and the TGI (HCT-116 colon) was > 100 µM. For the same molecule, the TGI (IGROV1 ovarian) was > 100 µM, the TGI (UO-31 renal) was > 100 µM and the TGI (SK-MEL-2 melanoma) was > 100 µM. The TGI (U251 CNS) was > 100 µM, the TGI (NCI-H226 lung) was > 100 µM and the TGI (SF-539 CNS) was > 100 µM. For the same molecule, the TGI (UACC-62 melanoma) was > 100 µM, the TGI (TK-10 renal) was > 100 µM and the TGI (SNB-19 CNS) was > 100 µM. The TGI (SF-268 CNS) was > 100 µM, the TGI (SK-OV-3 ovarian) was > 100 µM and the TGI (OVCAR-8 ovarian) was > 100 µM. For the same molecule, the TGI (OVCAR-3 ovarian) was > 100 µM, the TGI (DMS 114 small cell lung) was > 100 µM and the TGI (DLD-1 colon) was > 100 µM. The TGI (CCRF-CEM leukemia) was > 100 µM, the TGI (MALME-3M melanoma) was > 100 µM and the TGI (NCI-H522 lung) was > 100 µM. The TGI (A498 renal) was > 100 µM.
`CC12CCC(C)(c3cc(O)c(O)cc31)c1cc(O)c(O)cc12` gave a TGI (OVCAR-4 ovarian) of 28.7 µM, a TGI (SW-620 colon) of 40.9 µM and a TGI (EKVX NSCLC) of 56.3 µM. For the same molecule, the TGI (A549 NSCLC) was 94.4 µM, the TGI (UACC-257 melanoma) was 29.8 µM and the TGI (NCI-H460 lung) was 35.7 µM. For the same molecule, the TGI (M14 melanoma) was 36 µM, the TGI (RXF-631 renal) was 55.6 µM and the TGI (HCC-2998 colon) was 33.6 µM. It also gave a TGI (SNB-78 CNS) of 39.2 µM, a TGI (HOP-92 NSCLC) of 25.4 µM and a TGI (ACHN renal) of 32.5 µM. It also gave a TGI (KM12 colon) of 32.7 µM, a TGI (COLO 205 colon) of 30 µM and a TGI (LOX IMVI melanoma) of 35.4 µM. It also gave a TGI (SF-295 CNS) of 46.8 µM, a TGI (DMS 273 small cell lung) of 37.5 µM and a TGI (SK-MEL-28 melanoma) of 34.1 µM. It also gave a TGI (HOP-62 NSCLC) of 67.8 µM, a TGI (KM20L2 colon) of 39.2 µM and a TGI (SK-MEL-5 melanoma) of 36.4 µM. It also gave a TGI (HT29 colon) of 33.2 µM, a TGI (HL-60(TB) leukemia) of 13.1 µM and a TGI (OVCAR-5 ovarian) of 48.1 µM. It also gave a TGI (786-0 renal) of 27.9 µM, a TGI (NCI-H23 lung) of 75.5 µM and a TGI (LXFL 529 NSCLC) of 22.2 µM. For the same molecule, the TGI (M19-MEL melanoma) was 31.6 µM, the TGI (RXF 393 renal) was 31.3 µM and the TGI (K-562 leukemia) was 29.5 µM. For the same molecule, the TGI (HCT-15 colon) was 29.3 µM, the TGI (RPMI-8226 leukemia) was 30 µM and the TGI (SNB-75 CNS) was 52.5 µM. The TGI (MOLT-4 leukemia) was 42.5 µM, the TGI (SN12C renal) was 48.6 µM and the TGI (XF 498 CNS) was 34 µM. The TGI (IGROV1 ovarian) was 40.4 µM, the TGI (UO-31 renal) was 43.5 µM and the TGI (SK-MEL-2 melanoma) was > 100 µM. It also gave a TGI (UACC-62 melanoma) of 36.2 µM, a TGI (TK-10 renal) of 40.3 µM and a TGI (SNB-19 CNS) of 30.2 µM. It also gave a TGI (SF-268 CNS) of 42.9 µM, a TGI (SK-OV-3 ovarian) of 36.7 µM and a TGI (OVCAR-8 ovarian) of 57.9 µM. For the same molecule, the TGI (CAKI-1 renal) was 23.6 µM, the TGI (OVCAR-3 ovarian) was 32.6 µM and the TGI (DMS 114 small cell lung) was 31.1 µM. The TGI (DLD-1 colon) was 45.7 µM, the TGI (CCRF-CEM leukemia) was 11.1 µM and the TGI (MALME-3M melanoma) was 45.2 µM. It also gave a TGI (NCI-H522 lung) of 6.38 µM.
